Results taken from patent US11795190B2, “D-glycero-B-D-heptose 1-phosphate (HMP) conjugates and use for targeted immune modulation” (NATIONAL RESEARCH COUNCIL OF CANADA, priority 2017, dated 2023).

How the values were obtained:
[1] = tested on: TIFA knockout (TIFA KO) HEK 293T cells encoding an NF-κB-driven luciferase reporter gene; experiment: NF-κB-driven luciferase reporter assay in TIFA knockout HEK 293T cells; assay type: cell-based, human
Experimental: (§1) FIGS. 10A-B. Effect of chemically synthesised analogues on human embryonic kidney cells (HEK 293T) encoding an NF-κB-driven luciferase reporter gene. NF-κB luciferase activity was measured in wild type (WT) or TIFA knockout (TIFA KO) cells treated with compounds in the presence of digitonin for 20 min, washed, and then cultured in normal medium without the synthetic compounds for 6 hrs after treatment, before luciferase activity was measured. (A) Cells were treated with 10 μg/mL of the indicated compound. Data are means±standard error mean of technical triplicates. (B) Cells were treated with two different molar concentrations of compound (30 μM or 150 μM). Two batches of DD-β-HBP and DD-β-HMP synthesized independently of one another were tested (batch #1 and batch #2) to assess consistency of the chemical synthesis. Data are means±standard error mean of technical triplicates and are representative of three independent experiments. JS-12: D-glycero-D-manno-heptose; JS-2: D-glycero-D-manno-heptose 7-phosphate; JS-7:D-glycero-β-D-manno-heptose-phosphate; JS-8: D-glycero-α-D-manno-heptose-phosphate; JS-9: β-D-mannose phosphate; JS-6:D-glycero-β-D-manno heptose 1,7-biphosphate; JS-5: D-glycero-α-D-manno heptose 1,7-biphosphate.

[2] = tested on: human colonic epithelial cells (HCT 116), wild type; experiment: IL-8 ELISA in wild type HCT 116 cells after digitonin-permeabilised stimulation; assay type: cell-based; conditions: WT HCT 116, digitonin 20 min
Experimental: (§2) Wild type (WT) or TIFA knockout (TIFA KO) cells were treated with compounds in the presence of digitonin for 20 min, treatment was removed, cells were washed and then cultured in normal medium without the synthetic compounds for 6 hr before IL-8 levels in culture supernatants were measured by ELISA. (A) Cells were treated with water or 10 μg/mL of the indicated compound. Data are means±standard error mean of technical triplicates. (B) Cells were treated with the NOD1 agonist C12-iE-DAP (39.8 μM) or with two different molar concentrations of compounds (30 μM or 150 μM). Two batches of dd-β-HBP and dd-β-HMP synthesized independently of one another were tested (batch #1 and batch #2) to assess consistency of the chemical synthesis. Data are means±standard error mean of two (150 μM treatment) or three (all other treatments) independent experiments. Nod1 agonist: C12-iE-DAP (20 μg/ml, 39.8 μM); JS-12: D-glycero-D-manno-heptose; JS-2: D-glycero-D-manno-heptose 7-phosphate; JS-7:D-glycero-β-D-manno-heptose-phosphate; JS-8: d-glycero-α-d-manno-heptose-phosphate; JS-9: β-d-mannose phosphate; JS-6:d-glycero-β-d-manno heptose 1,7-biphosphate; JS-5: d-glycero-α-d-manno heptose 1,7-biphosphate.
(§3) FIG. 11. Stimulation of human colonic epithelial cells by compounds/products according to the invention. Human colonic epithelial cells (HCT 116) that were either wild type (WT) or deficient in TIFA protein expression (knockout, KO) were stimulated for 20 minutes in permeabilization buffer (5 μg/mL digitonin) in the presence of water or 10 μg/mL, 30 μg/mL, or 50 μg/mL of indicated synthetic compounds according to the invention. Treatment was removed, cells were washed, and cells were incubated for 6 hours in complete media before IL-8 levels in culture supernatants was measured by ELISA. The results are the mean±standard error of the mean of three technical replicates. JS-10: 7-O-(Aminoethyl)-D-glycero-β-D-manno-heptopyranose phosphate; JS-11: 7-O-(Aminoethyl) -D-glycero-D-manno-heptopyranose; JS-12: D-glycero-D-manno-heptose; Js-13: pH-Rhodo -7-O-(aminoethyl)-D-glycero-β-D-manno-heptopyranose phosphate.
FIG. 13. […] Treatment was removed, cells were washed, and cells were incubated for 6 hours in complete media before IL-8 levels in culture supernatants were measured by ELISA. The results are the mean±standard error of the mean of two (150 μM treatment) or three (all other treatments) independent experiments. #=none detected, JS-10: 7-O-(Aminoethyl)-d-glycero-β-d-manno-heptopyranose phosphate; JS-14: Biotin-7-O-(aminoethyl)-d-glycero-β-d-manno-heptopyranose phosphate, Nod1 agonist: C12-iE-DAP (20 μg/ml, 39.8 μM).
FIG. 16. […] Treatment was removed, cells were washed, and cells were incubated for 6 hours in complete media before IL-8 levels in culture supernatants were measured by ELISA. […]

[3] = tested on: HCT 116 cells deficient in TIFA protein expression (TIFA KO); experiment: IL-8 ELISA in TIFA knockout HCT 116 cells; assay type: cell-based, human; conditions: TIFA KO HCT 116
Experimental: as §2, §3
(§4) FIG. 13. Stimulation of human colonic epithelial cells by compounds/products according to the invention. Human colonic epithelial cells (HCT 116) that were either wild type (WT) or deficient in TIFA protein expression (knockout, TIFA KO) were stimulated for 20 minutes in permeabilization buffer (5 μg/mL digitonin) in the presence of water, 20 μg/mL of the Nod1 agonist C12-iE-DAP (39.8 μM, which induces inflammation in a TIFA-independent manner) or 30 μM or 150 μM of synthetic compound according to the invention. Treatment was removed, cells were washed, and cells were incubated for 6 hours in complete media before IL-8 levels in culture supernatants were measured by ELISA. The results are the mean±standard error of the mean of two (150 μM treatment) or three (all other treatments) independent experiments. #=none detected, JS-10: 7-O-(Aminoethyl)-d-glycero-β-d-manno-heptopyranose phosphate; JS-14: Biotin-7-O-(aminoethyl)-d-glycero-β-d-manno-heptopyranose phosphate, Nod1 agonist: C12-iE-DAP (20 μg/ml, 39.8 μM).
as §4, with “16.” for “13.”, “of” for “of the mean of two (150 μM treatment) or”, “technical replicates. […]” for “(all other treatments) independent experiments. #=none detected, JS-10: 7-O-(Aminoethyl)-d-glycero-β-d-manno-heptopyranose phosphate; JS-14: Biotin-7-O-(aminoethyl)-d-glycero-β-d-manno-heptopyranose phosphate, Nod1 agonist: C12-iE-DAP (20 μg/ml, 39.8 μM).”

[4] = tested on: HEK 293T cells encoding an NF-κB-driven luciferase reporter gene; experiment: NF-κB-driven luciferase reporter assay in HEK 293T cells; assay type: cell-based, human; conditions: digitonin 20 min; for inflammatory NF-κB response (luciferase activity): FIG. 10, WT HEK 293T, 10 μg/mL or 30 μM/150 μM, luciferase after 6 hrs
Experimental: as §1
FIG. 12. Effects of compounds/products according to the invention on HEK 293T cells encoding an NF-κB-driven luciferase reporter gene. HEK 293T cells were transfected with a plasmid encoding an NF-κB-driven luciferase reporter. After 24 hours, cells were stimulated for 20 minutes in permeabilization buffer (5 μg/mL digitonin) in the presence of water or 10 μg/mL, 30 μg/mL, or 50 μg/mL of indicated synthetic compounds according to the invention. Treatment was removed; cells were washed and incubated for 6 hours incomplete medium. A luciferase assay was then performed. JS-12a control: D-glycero-D-manno heptose. The results are the means±standard error of the mean of three technical replicates. JS-10: 7-O-(Aminoethyl)-D-glycero-β-D-manno-heptopyranose phosphate; JS-11: 7-O-(Aminoethyl)-D-glycero-D-manno-heptopyranose; JS-12: D-glycero-D-manno-heptose; Js-13: pH-Rhodo-7-O-(aminoethyl)-D-glycero-β-D-manno-heptopyranose phosphate.
FIG. 14. Effects of compounds/products according to the invention on HEK 293T cells encoding an NF-κB-driven luciferase reporter gene. HEK 293T cells were transfected with a plasmid encoding an NF-κB-driven luciferase reporter. After 24 hours, cells were stimulated for 20 minutes in permeabilization buffer (5 μg/mL digitonin) in the presence of water, or either 30 μM or 150 μM of indicated synthetic compounds according to the invention. Treatment was removed; cells were washed and incubated for 6 hours in complete medium. A luciferase assay was then performed. […]

[5] = tested on: human macrophage cells (THP-1); experiment: IL-8 ELISA in THP-1 cells after digitonin-permeabilised stimulation; assay type: cell-based; conditions: FIG. 15, higher (150 μM) concentrations, digitonin 20 min, IL-8 after 6 hours
Experimental: FIG. 15. Stimulation of human macrophages by compounds/products according to the invention. Human macrophage cells (THP-1) were stimulated for 20 minutes in permeabilization buffer (5 μg/mL digitonin) in the presence of water, 39.8 μM of the Nod1 agonist C12-iE-DAP (which stimulates in a TIFA-independent manner), or either 30 μM or 150 μM of synthetic compound according to the invention. Treatment was removed, cells were washed, and cells were incubated for 6 hours in complete media before the IL-8 levels in culture supernatants were measured by ELISA. The results are the mean and standard error of the mean of three technical replicates. Nod1 agonist: C12-iE-DAP (20 μg/ml, 39.8 μM); JS-7: JS-7:D-glycero-β-D-manno-heptose-phosphate; JS-10: 7-O-(Aminoethyl)-D-glycero-β-D-manno-heptopyranose phosphate; JS-14: Biotin-7-O-(aminoethyl)-D-glycero-β-D-manno-heptopyranose phosphate.

[6] = FIG. 10, TIFA KO HEK 293T, 10 μg/mL or 30 μM/150 μM
[7] = FIG. 9, 10 μg/mL or 30 μM/150 μM, IL-8 after 6 hr
[8] = FIG. 9, 10 μg/mL or 30 μM/150 μM
[9] = FIG. 13, 30 μM or 150 μM (Nod1 agonist 39.8 μM)
[10] = FIG. 17, TIFA KO cells, 30 μM or 150 μM
[11] = FIG. 16, 30 μM or 150 μM (Nod1 agonist 39.8 μM)

Molecule: O=P(O)(O)OC[C@@H](O)[C@H]1O[C@@H](OP(=O)(O)O)[C@@H](O)[C@@H](O)[C@@H]1O [JS6, D-glycero-β-D-manno heptose 1,7-biphosphate, reference compound]
- activity in TIFA KO cells (NF-κB luciferase), TIFA dependence [1, 6]: relative absence of activity
- inflammatory response (IL-8 in culture supernatant) [2, 7]: inflammatory response
- activity in TIFA KO cells (IL-8), TIFA dependence [3, 8]: relative absence of activity
- inflammatory NF-κB response (luciferase activity) [4]: inflammatory NF-κB response

Molecule: O=P(O)(O)O[C@@H]1O[C@H]([C@H](O)CO)[C@@H](O)[C@H](O)[C@@H]1O [JS7, D-glycero-β-D-manno-heptose-phosphate]
- activity in TIFA KO cells (NF-κB luciferase), TIFA dependence [1, 6]: relative absence of activity
- inflammatory response (IL-8 in culture supernatant) [2, 7]: inflammatory response similar to that apparent with DD-β-HBP (JS6)
- activity in TIFA KO cells (IL-8), TIFA dependence [3, 8]: relative absence of activity
- inflammatory NF-κB response (luciferase activity) [4]: inflammatory NF-κB response similar to that apparent with DD-β-HBP (JS6)

Molecule: O=C(CCCCC1SCC2NC(=O)NC21)NCCOC[C@@H](O)C1O[C@@H](OP(=O)([O-])[O-])C(O)C(O)[C@@H]1O.[Na+].[Na+] (stereo partly drawn) [JS-14a]
- inflammatory response (IL-8 in culture supernatant) [5]: stimulate an inflammatory response
- activity in TIFA KO cells (NF-κB luciferase), TIFA dependence ([1]; FIG. 14, TIFA KO cells, 30 μM or 150 μM): relative absence of activity
- activity in TIFA KO cells (IL-8), TIFA dependence [3, 9]: relative absence of activity

Molecule: O=C(CCCCC1SCC2NC(=O)NC21)NCCOCCOCCOCCOCCC(=O)NCCOC[C@@H](O)C1O[C@@H](OP(=O)(O)O)C(O)C(O)[C@@H]1O (stereo partly drawn) [JS-24a, Biotin-PEG4-7-O-(aminoethyl)-D-glycero-β-D-manno-heptopyranose phosphate]
- activity in TIFA KO cells (NF-κB luciferase), TIFA dependence [1, 10]: relative absence of activity
- activity in TIFA KO cells (IL-8), TIFA dependence [3, 11]: relative absence of activity

Molecule: CCCCCCCCCCCC(=O)N[C@H](CCC(=O)NC(CCCC(N)C(=O)O)C(=O)O)C(=O)O (stereo partly drawn) [Nod1 agonist, C12-iE-DAP, reference compound]
- activity in TIFA KO cells (IL-8), TIFA dependence [3, 9]: not TIFA-dependent
- activity in TIFA KO cells (IL-8), TIFA dependence [3, 11]: not TIFA-dependent

Molecule: Fluorescein-7-O-(aminoethyl)-D-glycero-β-D-manno-heptopyranose phosphate [JS-25a]
- activity in TIFA KO cells (NF-κB luciferase), TIFA dependence [1, 10]: relative absence of activity
- activity in TIFA KO cells (IL-8), TIFA dependence [3, 11]: relative absence of activity

Molecule: pH-Rhodo-7-O-(aminoethyl)-D-glycero-β-D-manno-heptopyranose phosphate [JS-13a]
- activity in TIFA KO cells (NF-κB luciferase), TIFA dependence ([1]; FIG. 12, TIFA KO cells, 10, 30 or 50 μg/mL): relative absence of activity
- inflammatory response (IL-8 in culture supernatant) ([2]; FIG. 11, 10, 30 or 50 μg/mL, IL-8 after 6 hours): strong inflammatory response
- activity in TIFA KO cells (IL-8), TIFA dependence ([3]; FIG. 11, 10, 30 or 50 μg/mL): relative absence of activity
- inflammatory response (NF-κB luciferase) ([4]; FIG. 12, HEK 293T, 10, 30 or 50 μg/mL, luciferase after 6 hours): strong inflammatory response
